US10544156B2, “Hemi-synthetic trilobine analogs for use as a drug” (PIERRE FABRE MEDICAMENT, priority 2015, dated 2020)
Like-named read-outs stand apart in the source and are kept apart here.

Legend:
[1] = target: T1, His-DNMT1 (182 kDa, human) (Homo sapiens, UniProt P26358); assay: hDNMT1 assay ([methyl-3H] SAM Flashplate); assay type: biochemical; settings: for EC50: read-out: EC50 (μM), hDNMT 1 inhibition; for inhibition at 10 µM: read-out: hDNMT 1 inhibition, Inhibition (%) 10 μM; for inhibition at 32 µM: read-out: hDNMT 1 inhibition, Inhibition (%) 32 μM
T1 construct: His; made in house
T1 sequence (P26358 whole entry): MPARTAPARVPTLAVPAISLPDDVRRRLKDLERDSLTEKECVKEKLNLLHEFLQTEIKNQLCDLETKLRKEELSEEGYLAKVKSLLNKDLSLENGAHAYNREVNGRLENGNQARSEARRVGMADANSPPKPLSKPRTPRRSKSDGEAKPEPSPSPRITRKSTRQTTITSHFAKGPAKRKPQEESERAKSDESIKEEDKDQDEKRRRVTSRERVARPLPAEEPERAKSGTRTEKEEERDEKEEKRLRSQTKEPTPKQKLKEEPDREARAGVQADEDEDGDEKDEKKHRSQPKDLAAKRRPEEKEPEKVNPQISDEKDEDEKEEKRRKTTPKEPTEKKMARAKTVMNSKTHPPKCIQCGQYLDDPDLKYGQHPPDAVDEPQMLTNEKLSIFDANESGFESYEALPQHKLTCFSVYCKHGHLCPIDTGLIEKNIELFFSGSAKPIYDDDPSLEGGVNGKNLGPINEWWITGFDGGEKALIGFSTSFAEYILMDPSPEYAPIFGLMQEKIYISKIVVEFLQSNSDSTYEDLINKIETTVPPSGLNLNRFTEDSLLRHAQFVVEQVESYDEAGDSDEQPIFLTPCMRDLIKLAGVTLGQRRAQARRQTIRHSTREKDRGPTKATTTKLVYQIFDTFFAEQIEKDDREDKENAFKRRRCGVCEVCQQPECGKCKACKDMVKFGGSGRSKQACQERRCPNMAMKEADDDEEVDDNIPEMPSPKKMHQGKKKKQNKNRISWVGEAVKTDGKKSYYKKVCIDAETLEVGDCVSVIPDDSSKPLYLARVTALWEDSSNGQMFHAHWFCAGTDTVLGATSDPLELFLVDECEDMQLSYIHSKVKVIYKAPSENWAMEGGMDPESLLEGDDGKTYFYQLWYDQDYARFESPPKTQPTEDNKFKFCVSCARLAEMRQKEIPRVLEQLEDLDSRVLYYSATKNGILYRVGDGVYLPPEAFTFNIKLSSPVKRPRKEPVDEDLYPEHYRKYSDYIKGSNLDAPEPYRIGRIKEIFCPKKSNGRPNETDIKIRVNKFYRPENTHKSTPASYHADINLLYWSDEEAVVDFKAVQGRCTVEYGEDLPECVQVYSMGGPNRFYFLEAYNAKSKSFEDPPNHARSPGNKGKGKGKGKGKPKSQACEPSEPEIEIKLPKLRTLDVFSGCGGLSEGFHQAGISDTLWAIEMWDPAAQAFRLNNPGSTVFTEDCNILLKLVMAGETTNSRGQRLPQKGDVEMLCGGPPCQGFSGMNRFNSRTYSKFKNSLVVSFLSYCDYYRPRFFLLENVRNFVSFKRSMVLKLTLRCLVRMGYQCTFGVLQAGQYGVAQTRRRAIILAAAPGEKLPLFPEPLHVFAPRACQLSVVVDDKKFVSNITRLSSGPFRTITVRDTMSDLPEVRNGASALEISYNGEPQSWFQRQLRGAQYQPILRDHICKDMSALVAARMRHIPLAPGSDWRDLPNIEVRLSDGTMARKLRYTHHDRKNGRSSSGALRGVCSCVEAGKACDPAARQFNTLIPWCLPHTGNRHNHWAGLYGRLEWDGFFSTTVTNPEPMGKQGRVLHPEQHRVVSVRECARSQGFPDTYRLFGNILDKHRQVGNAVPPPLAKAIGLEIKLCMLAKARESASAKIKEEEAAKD
Procedure: His-DNMT1 (182 kDa, human) was cloned, expressed and purified as described (Halby et al. Chem Bio Chem 2012, 13, 157-165). The reaction was performed in a 10 μL total reaction volume in low volume NBS™ 384-well microplates (Corning), containing the tested compound (up to 1% DMSO), 1 μM of a SAM/[methyl-^3H] SAM (3TBq/mmol, PerkinElmer) mix in a ratio of 3-to-1 (isotopic dilution 1*:3), 0.3 μM of biotinylated hemimethylated DNA duplex (5′-GATmCGCmCGATGmCGmCGAATmCGmCGATmCGATGmCGAT-3′ and BIOT-5′-[…]-3′), and 90 nM of DNMT1 in methylation buffer (20 mM HEPES pH 7.2, 1 mM EDTA, 50 mM KCl, 25 μg/mL BSA). The reaction was incubated at 37° C. for 2 hours. 8 μL are then transferred into a streptavidin 96-well scintillant coated Flashplate™ (PerkinElmer) containing 190 μL of 20 μM SAH in 50 mM Tris-HCl pH 7.4. The Flashplate™ was agitated at room temperature for 1 hour and read in 200 μL of 50 mM Tris-HCl pH 7.4 on TopCount NXT (PerkinElmer). The percentage of inhibition is reported. The formula used to calculate the percentage of inhibition is [(X−Y)/X]×100, where X is the signal determined in the absence of the inhibitor and Y is the signal obtained in the presence of the inhibitor.

[2] = target: T2, human C-terminal DNMT3A (623-908a.a.) (Homo sapiens, UniProt Q9Y6K1); assay: hDNMT3A assay (restriction-based fluorescence assay); assay type: biochemical; settings: for inhibition at 10 µM: read-out: hDNMT 3A inhibition, Inhibition (%) 10 μM; for inhibition at 32 µM: read-out: hDNMT 3A inhibition, Inhibition (%) 32 μM
T2 construct: The human C-terminal DNMT3A (623-908a.a.); made in house
T2 sequence (Q9Y6K1 627-912 limits assumed): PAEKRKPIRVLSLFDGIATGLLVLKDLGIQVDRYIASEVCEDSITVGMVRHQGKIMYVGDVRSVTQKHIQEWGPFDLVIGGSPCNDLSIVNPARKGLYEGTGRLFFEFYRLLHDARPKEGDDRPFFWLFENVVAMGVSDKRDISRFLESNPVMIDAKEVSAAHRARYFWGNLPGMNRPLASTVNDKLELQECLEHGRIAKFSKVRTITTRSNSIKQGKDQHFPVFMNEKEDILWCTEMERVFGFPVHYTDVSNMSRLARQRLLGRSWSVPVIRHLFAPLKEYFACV
Source text: hDNMT3A enzyme inhibition was adapted from the restriction-based fluorescence assay protocol as described in the literature (Ceccaldi et al. Chem Bio Chem 2011, 12, 1337-1345). Briefly, a 5′-labelled biotin oligonucleotide is hybridized to its complementary strand labelled with 6-carboxyfluorescein at the 3′-end into a 384 well microplate (black Optiplates; Perkin Elmer) pre-coated with avidin. The duplex contains a unique CpG site overlapping with a restriction site of a methylation sensitive restriction enzyme. The human C-terminal DNMT3A (623-908a.a.), produced as described in (Gros et al. Nucl. Acids Res. 2013, 41(19):e185), was added in each well (200 ng/well) and mixed with the chemical compounds at desired concentrations and freshly prepared SAM (20 μM final concentration) to start the reaction in a total volume of 50 μL. After 1 hour incubation at 37° C. each well were washed three times with PBS, Tween-20 0.05%, NaCl (500 mM) and three more times with PBST. Specific fluorescent signals were detected with the methylation-sensitive restriction enzyme HpyCH4IV (NEB) as described and measured on a Perkin Elmer Envision detector. The percentage of inhibition is reported. The formula used to calculate the percentage of inhibition is [(X−Y)/X]×100, where X is the signal determined in the absence of the inhibitor and Y is the signal obtained in the presence of the inhibitor. The concentration at which 50% of efficacy of inhibition is observed (EC50) was determined by analysis of a concentration range of the tested compound in triplicates. The non-linear regression fittings with sigmoidal dose-response (variable slope) were performed with GraphPad Prism 4.03 (GraphPad Software).

[3] = system: luciferase reporter gene under control of methylated CMV promoter in KG-1 cells; assay: CMV-luc reexpression in KG-1 cells; assay type: cell-based, human; settings: for Induction Fold (IF) of luciferase gene reporter in KG-1 CMV-Luc: 24 h, vs DMSO; for IF-24 h, KG1 CMV-Luc model: at 5 μM, 24 h (Table 5)
Procedure: KG-1 cells were stably transfected with the firefly luciferase reporter gene (luc+ from pGL3; Promega) under the control of the cytomegalovirus (CMV) promoter (from pEGFP-N1; Clontech Laboratories Inc.) partially methylated (50%). 20,000 cells per well were seeded in a 96-well plate. After 24 h incubation in the presence of the test compound or solvant (DMSO), the induction of the promoter was measured by quantification of the luciferase signal with the Brite-lite assay system (PerkinElmer) according to the manufacturer's protocol. The luminescence was measured on an EnVision multilabel plate reader (PerkinElmer), and the data are expressed as the fold induction as compared with the DMSO control. The mean of three experiments and the standard error is reported.

KG-1 (leukemia) = assay: Anti-proliferative activity (ATPLite); assay type: cell-based; settings: Homo sapiens; daily treatment, cell viability by ATPLite; read-out: Antiproliferative activity: IC50 (μM) KG-1 (leukemia)
Procedure: (§1) To measure the anti-proliferative properties of tested molecules, 2×10^4 cells are seeded at day 0 in a 96 wells plate. The compounds to be tested, stored at −20° C. as 10^−2 M stock solution in 100% DMSO, are freshly diluted on day 1 in the cell medium, before adding a dose range of 3.2 nM to 10 μM to the cells. Cells are treated everyday and cell viability assessed after 3 days or 7 days of treatment. The cell viability is assessed using the ATPLite kit from Perkin (ATPlite 1 Step Luminescence Assay System, ref 3016739), following the provider instructions. The raw data are analyzed with GraphPad Prism software (v4.03) to generate IC50 values corresponding to the compound concentrations giving 50% reduction in cell viability. The values presented are the mean results of at least two independent experiments. The standard errors are indicated.

[4] = system: HCT116 (colorectal cancer); assay: Anti-proliferative activity (ATPLite); assay type: cell-based; settings: Homo sapiens, HCT-116; daily treatment, cell viability by ATPLite; read-out: Antiproliferative activity: IC50 (μM) HCT116 (colorectal cancer)
Procedure: as §1

[5] = concentration at which 50% of efficacy of inhibition is observed, read-out: EC50 (μM), hDNMT 3A inhibition
[6] = interval line below the EC50 of the same compound, read-out: EC50 (μM), range given

Structure (SMILES)	EC50 [1] [µM]	inhibition at 10 µM [1] [%]	inhibition at 32 µM [1] [%]	EC50 [2, 5] [µM]	EC50 [2, 6] [µM]	inhibition at 10 µM [2] [%]	inhibition at 32 µM [2] [%]	Induction Fold (IF) of luciferase gene reporter in KG-1 CMV-Luc ([3]; 0.1 μM)	Induction Fold (IF) of luciferase gene reporter in KG-1 CMV-Luc ([3]; 0.32 μM)	Induction Fold (IF) of luciferase gene reporter in KG-1 CMV-Luc ([3]; 1 μM)	Induction Fold (IF) of luciferase gene reporter in KG-1 CMV-Luc ([3]; 3.2 μM)	Induction Fold (IF) of luciferase gene reporter in KG-1 CMV-Luc ([3]; 5 μM)	Induction Fold (IF) of luciferase gene reporter in KG-1 CMV-Luc ([3]; 10 μM)	IF-24 h, KG1 CMV-Luc model [3]	IC50 (KG-1 (leukemia)) [µM]	IC50 [4] [µM]
CCN(CC)CCCNC(=O)N1CCc2cc3c4cc2[C@@H]1Cc1ccc(OC)c(c1)Oc1ccc(cc1)C[C@H]1c2c(cc(OC)c(c2O4)O3)CCN1C(=O)NCCCN(CC)CC [Product 48]	14.6 ± 1.3	32	98	1.93	1 to 3.72	82	98	1.1 ± 0.1	1.2 ± 0.3	1.2 ± 0.1	1.2 ± 0.1	1.3 ± 0.1	2.3 ± 1.3	1.1	–	–
CCN(CC)CCCNC(=S)N1CCc2cc3c4cc2[C@@H]1Cc1ccc(OC)c(c1)Oc1ccc(cc1)C[C@H]1c2c(cc(OC)c(c2O4)O3)CCN1C [Product 42]	10.6 ± 2.8	38	100	0.64	0.47 to 0.86	98	98	1.2 ± 0.1	1.3 ± 0.1	1.5 ± 0.1	2.0 ± 0.2	2.3 ± 0.1	–	1.1 ± 0.6	3.57 ± 0.04	0.5 ± 0.01
